Reference: PMC5469811, “Identification of GXXXXG motif in Chrysophsin-1 and its implication in the design of analogs with cell-selective antimicrobial and anti-endotoxin activities” (Scientific Reports, 2017)
≈ marks a conversion by molar mass, not a printed value. Residues, ends and D or L forms follow the SMILES beside them.

Experiments:
[1] = test system: E. coli ATCC 25922; experiment: Synergy with conventional antibiotics, checkerboard titration; type: cell-based, Escherichia coli
Description: The checkerboard titration method was followed to check the synergy of peptides with other antibiotics. First, 2-fold serial dilutions of the antibiotics and antimicrobial peptides were prepared. Subsequently, 50 μl each of different concentrations of antibiotics and of antimicrobial peptides was mixed and added into 100 μl of log phase bacteria culture in a 96-well plate. The plates were then incubated at 37 °C for 24 h. The fractional inhibitory concentration (FIC) index (FICI) was calculated as follows[39]: FICI=(MICofdrugAincombination)/(MICofdrugAalone)+(MICofdrugBincombination)/(MICofdrugB): FICI < 0.5 is considered to indicate synergy; 0.5 < FICI < 1.0 is considered additive; 1.0 < FICI < 4.0 is considered indifferent; and FICI > 4.0 is considered antagonism.

[2] = test system: E. coli (ATCC 25922); type: cell-based, Escherichia coli; conditions: ATCC 25922, 1 h
Description: (§1) E. coli ATCC25922 was grown to 10^6 CFU/ml in fresh MH broth with various divalent and monovalent salts at their physiological concentrations. Serial dilutions of chrysophsin-1 and its variants prepared with the same MH broth were added to the E. coli ATCC 25922 suspensions. The bacteria were incubated at 37 °C in a shaking incubator for 18 h and the MIC values of individual peptides against E. coli ATCC 25922 were determined. Thermal tolerance of Chrysophsin-1 and its variants was checked by incubating the peptides at 4 °C, 60 °C and 90 °C for 1 h prior to MIC determination. The antibacterial activity in presence of serum was carried out by adding a final concentration of 10% fetal bovine serum in the assay diluents containing 0.4% BSA, 0.02% glacial acetic acid. The subsequent steps in both the experiments were consistent with the MIC determination method.

[3] = test system: E. coli ATCC 25922; type: cell-based, Escherichia coli; conditions: ATCC 25922, 18 h
Description: as §1

[4] = test system: S. aureus (ATCC 25923); type: cell-based, Staphylococcus aureus; conditions: ATCC 25923, 1 h
Description: as §1

[5] = test system: Candida albicans (ATCC 10231); experiment: microbe, parasite or virus in culture; type: cell-based; conditions: ATCC 10231, 48 h; read-out: Minimum inhibitory concentration (MIC)
Description: (§2) The anti- fungal activity of peptides was performed according to the standard micro broth dilution technique as per NCCLS guidelines. These plates were incubated in a moist chamber at 35 °C, and an absorbance at 492 nm was recorded on a VersaMax microplate reader after 48 h for C. albicans ATCC 10231 and C. parapsilosis ATCC 22019 and 72 h for C. neoformans.

[6] = test system: Cryptococcus neoformans; experiment: microbe, parasite or virus in culture; type: cell-based; conditions: 72 h; read-out: Minimum inhibitory concentration (MIC)
Description: as §2

[7] = test system: Candida parapsilosis (ATCC 22019); experiment: microbe, parasite or virus in culture; type: cell-based; conditions: ATCC 22019, 48 h; read-out: Minimum inhibitory concentration (MIC)
Description: as §2

[8] = test system: Staphylococcus aureus (ATCC 700698 MRSA); experiment: microbe, parasite or virus in culture; type: cell-based; conditions: ATCC 700698; read-out: Minimum inhibitory concentration (MIC)
Description: (§3) Antibacterial assay against various Gram-positive and Gram-negative strains of bacteria was performed by the serial two-fold dilution method according to the previously reported procedure, [36]. The antibacterial assays were repeated thrice and the averages of these MIC values were reported.

[9] = test system: Staphylococcus aureus (ATCC 25923); experiment: microbe, parasite or virus in culture; type: cell-based; conditions: ATCC 25923; read-out: Minimum inhibitory concentration (MIC)
Description: as §3

[10] = test system: Escherichia coli (ATCC 25922); experiment: microbe, parasite or virus in culture; type: cell-based; conditions: ATCC 25922; read-out: Minimum inhibitory concentration (MIC)
Description: as §3

[11] = test system: Staphylococcus aureus (ATCC 29213); experiment: microbe, parasite or virus in culture; type: cell-based; conditions: ATCC 29213; read-out: Minimum inhibitory concentration (MIC)
Description: as §3

[12] = test system: Escherichia coli (ATCC 9637); experiment: microbe, parasite or virus in culture; type: cell-based; conditions: ATCC 9637; read-out: Minimum inhibitory concentration (MIC)
Description: as §3

[13] = test system: Staphylococcus aureus (ATCC 33592) Methicillin resistant Genatmicin resistant; experiment: microbe, parasite or virus in culture; type: cell-based; conditions: ATCC 33592; read-out: Minimum inhibitory concentration (MIC)
Description: as §3

[14] = test system: Pseudomonas aeruginosa (ATCC BAA-427); experiment: microbe, parasite or virus in culture; type: cell-based; conditions: ATCC BAA-427; read-out: Minimum inhibitory concentration (MIC)
Description: as §3

[15] = test system: Staphylococcus aureus (ATCC 700699 MRSA); experiment: microbe, parasite or virus in culture; type: cell-based; conditions: ATCC 700699; read-out: Minimum inhibitory concentration (MIC)
Description: as §3

[16] = test system: Bacillus subtilis (ATCC 6633); experiment: microbe, parasite or virus in culture; type: cell-based; conditions: ATCC 6633; read-out: Minimum inhibitory concentration (MIC)
Description: as §3

[17] = test system: Staphylococcus aureus (BAA-44)MDR; experiment: microbe, parasite or virus in culture; type: cell-based; conditions: BAA-44; read-out: Minimum inhibitory concentration (MIC)
Description: as §3

[18] = test system: Klebsiella pneumoniae (ATCC 27736); experiment: microbe, parasite or virus in culture; type: cell-based; conditions: ATCC 27736; read-out: Minimum inhibitory concentration (MIC)
Description: as §3

[19] = test system: Sporothrix schenckii (Patient isolates); experiment: microbe, parasite or virus in culture; type: cell-based; conditions: 48 h; read-out: Minimum inhibitory concentration (MIC)

- Antibacterial activity (MIC) after incubating peptide at 4 °C [2]: 4.1 µM
- Antibacterial activity (MIC) after incubating peptide at 60 °C [2]: 4.3 µM
- Antibacterial activity (MIC) after incubating peptide at 90 °C [2]: 8.3 µM
- Antibacterial activity (MIC) in the presence of 10% FBS [3]: 8.6 µM
- Antibacterial activity (MIC) in the presence of FeCl3 [3]: 4.1 µM
- Antibacterial activity (MIC) in the presence of KCl [3]: 4.3 µM
- Antibacterial activity (MIC) in the presence of MgCl2 [3]: 4.3 µM
- Antibacterial activity (MIC) in the presence of NH4Cl [3]: 2.0 µM
- Antibacterial activity (MIC) in the presence of NaCl [3]: 8.6 µM
- Antibacterial activity (MIC) in the presence of ZnCl2 [3]: 2 µM
- Antibacterial activity (MIC) after incubating peptide at 4 °C [4]: 3 µM
- Antibacterial activity (MIC) after incubating peptide at 60 °C [4]: 4.3 µM
- Antibacterial activity (MIC) after incubating peptide at 90 °C [4]: 8.6 µM
- MIC [5]: 3 µM (≈ 8.79 µg/mL)
- MIC [6]: 6.8 µM (≈ 19.9 µg/mL)
- MIC [7]: 6.8 µM (≈ 19.9 µg/mL)
- MIC [8]: 1.6 µM (≈ 4.69 µg/mL)
- MIC [9]: 3 µM (≈ 8.79 µg/mL)
- MIC [10]: 4.1 µM (≈ 12 µg/mL)
- MIC [11]: 1.6 µM (≈ 4.69 µg/mL)
- MIC [12]: 3.3 µM (≈ 9.67 µg/mL)
- MIC [13]: 0.8 µM (≈ 2.35 µg/mL)
- MIC [14]: 6.8 µM (≈ 19.9 µg/mL)
- MIC [15]: 1.6 µM (≈ 4.69 µg/mL)
- MIC [16]: 3 µM (≈ 8.79 µg/mL)
- MIC [17]: 1.6 µM (≈ 4.69 µg/mL)
- MIC [18]: 3.3 µM (≈ 9.67 µg/mL)
- MIC [19]: 13.6 µM (≈ 39.9 µg/mL)
SMILES: CC[C@H](C)[C@H](NC(=O)[C@H](C)NC(=O)[C@H](CCCCN)NC(=O)CNC(=O)[C@H](C)NC(=O)[C@H](Cc1c[nH]cn1)NC(=O)[C@@H](NC(=O)[C@H](C)NC(=O)[C@@H]1CCCN1C(=O)[C@H](CCCCN)NC(=O)[C@@H](NC(=O)[C@H](CC(C)C)NC(=O)[C@H](Cc1c[nH]c2ccccc12)NC(=O)CNC(=O)[C@H](Cc1ccccc1)NC(=O)[C@@H](N)Cc1ccccc1)[C@@H](C)CC)[C@@H](C)CC)C(=O)N[C@@H](Cc1c[nH]cn1)C(=O)NCC(=O)N[C@@H](CC(C)C)C(=O)N[C@H](C(=O)N[C@@H](Cc1c[nH]cn1)C(=O)N[C@@H](CCCNC(=N)N)C(=O)N[C@@H](CCCNC(=N)N)C(=O)N[C@@H](CCCNC(=N)N)C(=O)N[C@@H](Cc1c[nH]cn1)C(N)=O)[C@@H](C)CC [Peptide G8P-Chr-1] (H-FFGWLIKPAIHAGKAIHGLIHRRRH-NH2; N-terminus and C-terminus assumed)
- interaction of peptide with chloramphenicol (by FICI) [1]: synergy (FICI < 0.5 is considered to indicate synergy)
